{"source": "paper PMC7586456", "about": "(ACS Pharmacology & Translational Science, 2020)", "key": {"MERS-S PP [1]": {"system": "MERS-S PP", "type": "cell-based, MERS-CoV"}, "VSV-G PP [2]": {"system": "VSV-G PP", "assay": "microbe, parasite or virus in culture", "type": "cell-based, Vesicular stomatitis virus", "details": "for EC50: Vesicular stomatitis virus, Huh-7, read-out: VSV-G PP in Huh7 EC50"}, "SARS-S PP [3]": {"system": "SARS-S PP", "type": "cell-based, SARS-CoV"}, "MERS-S PP [4]": {"system": "MERS-S PP", "type": "cell-based, MERS-CoV", "remark": "listed apart in the source"}, "Huh7 cells": {"system": "Huh7 cells", "details": "human"}, "[5]": {"system": "SARS CoV-2 (USA_WA1/2020)"}, "Vero E6 cells [6]": {"system": "Vero E6 cells"}, "in vitro": {"assay": "in vitro", "details": "human"}, "SARS-S PP [7]": {"system": "SARS-S PP", "type": "cell-based, SARS-CoV", "remark": "listed apart in the source"}, "VSV-G PP [8]": {"system": "VSV-G PP", "type": "cell-based, Vesicular stomatitis virus"}, "Vero E6 cells [9]": {"system": "Vero E6 cells", "remark": "listed apart in the source"}, "[10]": {"system": "SARS CoV-2 (USA_WA1/2020)", "details": "cited from earlier work"}}, "note": "Where two headings read alike, the source gives them in different places.", "data": [{"molecule": "CCN1CCN(Cc2ccc(Nc3ncc(F)c(-c4cc(F)c5nc(C)n(C(C)C)c5c4)n3)nc2)CC1", "note": "[abemaciclib]", "values": [{"measurement": "MERS-S PP in Huh7 efficacy", "setting": "MERS-S PP [1]", "value": 82.3, "unit": "%"}, {"measurement": "VSV-G PP in Huh7 efficacy", "setting": "VSV-G PP [2]", "value": 27.1, "unit": "%"}, {"measurement": "EC50", "setting": "VSV-G PP [2]", "value": "> 57.5", "unit": "µM"}, {"measurement": "selectivity toward SARS-S-based entry compared with VSV-G in Calu-3 cells", "setting": "SARS-S PP [3]", "value": "> 10", "unit": "fold"}, {"measurement": "selectivity toward MERS-S-based entry compared with VSV-G in Calu-3 cells", "setting": "MERS-S PP [4]", "value": "> 10", "unit": "fold"}, {"measurement": "Huh7 cytotoxicity cytotox", "setting": "Huh7 cells", "value": 90.0, "unit": "%"}, {"measurement": "safety ratio (CC50 of Vero E6 CPE counter screen divided by EC50 of SARS-CoV-2 CPE assay)", "setting": "[5]; African green monkey", "value": 6.3}, {"measurement": "Vero E6 cytotoxicity cytotox (SARS-CoV-2 CPE counter screen)", "setting": "Vero E6 cells [6]; African green monkey", "value": 34.0, "unit": "%"}, {"measurement": "CC50", "setting": "in vitro", "value": 17.1, "unit": "µM"}]}, {"molecule": "C=CC(=O)Nc1cc(Nc2nccc(-c3cn(C)c4ccccc34)n2)c(OC)cc1N(C)CCN(C)C", "note": "[osimertinib]", "values": [{"measurement": "SARS-S PP in Vero E6 efficacy", "setting": "SARS-S PP [7]", "value": 117.5, "unit": "%"}, {"measurement": "selectivity ratio (EC50 of VSV-G PP entry divided by SARS-S PP entry EC50)", "setting": "SARS-S PP [7]", "value": 15.8}, {"measurement": "VSV-G PP in Vero E6 efficacy", "setting": "VSV-G PP [8]", "value": 118.4, "unit": "%"}, {"measurement": "Vero E6 cytotoxicity cytotox", "setting": "Vero E6 cells [9]; African green monkey", "value": 99.6, "unit": "%"}, {"measurement": "safety ratio (CC50 of Vero E6 CPE counter screen divided by EC50 of SARS-CoV-2 CPE assay)", "setting": "[5]; African green monkey", "value": 2.5}, {"measurement": "Vero E6 cytotoxicity cytotox (SARS-CoV-2 CPE counter screen)", "setting": "Vero E6 cells [6]; African green monkey", "value": 99.7, "unit": "%"}]}, {"molecule": "colforsin [NKH477]", "values": [{"measurement": "SARS-S PP in Vero E6 efficacy", "setting": "SARS-S PP [7]", "value": 71.4, "unit": "%"}, {"measurement": "EC50", "setting": "SARS-S PP [7]; read-out: SARS-S PP in Vero E6 EC50", "value": 1.36, "unit": "µM"}, {"measurement": "VSV-G PP in Vero E6 efficacy", "setting": "VSV-G PP [8]", "value": 0, "unit": "%"}, {"measurement": "EC50", "setting": "VSV-G PP [8]; read-out: VSV-G PP in Vero E6 EC50", "value": "> 57.5", "unit": "µM"}, {"measurement": "activity in MERS-S PP entry in Huh7 cells (in words)", "setting": "MERS-S PP [1]", "value": "not in MERS-S entry in Huh7 cells"}, {"measurement": "CC50", "setting": "Vero E6 cells [9]", "value": "> 57.5", "unit": "µM"}, {"measurement": "Vero E6 cytotoxicity cytotox", "setting": "Vero E6 cells [9]", "value": 0, "unit": "%"}, {"measurement": "safety ratio (CC50 of Vero E6 CPE counter screen divided by EC50 of SARS-CoV-2 CPE assay)", "setting": "[5]", "value": 1.1}, {"measurement": "EC50", "setting": "[5]; read-out: SARS-CoV-2 CPE EC50", "value": 23.1, "unit": "µM"}, {"measurement": "CC50", "setting": "Vero E6 cells [6]", "value": 25.2, "unit": "µM"}, {"measurement": "Vero E6 cytotoxicity cytotox (SARS-CoV-2 CPE counter screen)", "setting": "Vero E6 cells [6]", "value": 42.0, "unit": "%"}]}, {"molecule": "CC(CN(C)C)CN1c2ccccc2CCc2ccccc21", "note": "(stereo not drawn) [trimipramine]", "values": [{"measurement": "SARS-S PP in Vero E6 efficacy", "setting": "SARS-S PP [7]", "value": 90.9, "unit": "%"}, {"measurement": "VSV-G PP in Vero E6 efficacy", "setting": "VSV-G PP [8]", "value": 29.2, "unit": "%"}, {"measurement": "entry inhibition activity in Calu-3 cells (in words)", "setting": "SARS-S PP [3]", "value": "not confirmed"}, {"measurement": "Vero E6 cytotoxicity cytotox", "setting": "Vero E6 cells [9]; African green monkey", "value": 16.6, "unit": "%"}, {"measurement": "safety ratio (CC50 of Vero E6 CPE counter screen divided by EC50 of SARS-CoV-2 CPE assay)", "setting": "[5]; African green monkey", "value": 1.0}, {"measurement": "Vero E6 cytotoxicity cytotox (SARS-CoV-2 CPE counter screen)", "setting": "Vero E6 cells [6]; African green monkey", "value": 16.6, "unit": "%"}]}, {"molecule": "COc1c(OCCCN2CCOCC2)ccc2c1N=C(NC(=O)c1cnc(N)nc1)N1CCN=C21", "note": "[copanlisib]", "values": [{"measurement": "MERS-S PP in Huh7 efficacy", "setting": "MERS-S PP [1]", "value": 65.8, "unit": "%"}, {"measurement": "VSV-G PP in Huh7 efficacy", "setting": "VSV-G PP [2]", "value": 6.2, "unit": "%"}, {"measurement": "EC50", "setting": "VSV-G PP [2]", "value": "> 57.5", "unit": "µM"}, {"measurement": "Huh7 cytotoxicity cytotox", "setting": "Huh7 cells", "value": 13.6, "unit": "%"}, {"measurement": "SARS-CoV-2 CPE efficacy", "setting": "[5]", "value": 0.0, "unit": "%"}, {"measurement": "Vero E6 cytotoxicity cytotox (SARS-CoV-2 CPE counter screen)", "setting": "Vero E6 cells [6]; African green monkey", "value": 42.4, "unit": "%"}, {"measurement": "CC50", "setting": "in vitro", "value": "> 57.5", "unit": "µM"}]}, {"molecule": "COc1ccc2cc1Oc1ccc(cc1)C[C@H]1c3c(cc4c(c3Oc3cc5c(cc3OC)CCN(C)[C@@H]5C2)OCO4)CCN1C", "note": "[cepharanthine]", "values": [{"measurement": "SARS-S PP in Vero E6 efficacy", "setting": "SARS-S PP [7]", "value": 90.9, "unit": "%"}, {"measurement": "VSV-G PP in Vero E6 efficacy", "setting": "VSV-G PP [8]", "value": 76.9, "unit": "%"}, {"measurement": "MERS-S PP in Huh7 efficacy", "setting": "MERS-S PP [1]", "value": 108.4, "unit": "%"}, {"measurement": "VSV-G PP in Huh7 efficacy", "setting": "VSV-G PP [2]", "value": 115.3, "unit": "%"}, {"measurement": "EC50", "setting": "VSV-G PP [2]", "value": 24.2, "unit": "µM"}, {"measurement": "Vero E6 cytotoxicity cytotox", "setting": "Vero E6 cells [9]; African green monkey", "value": 106.2, "unit": "%"}, {"measurement": "Huh7 cytotoxicity cytotox", "setting": "Huh7 cells", "value": 88.9, "unit": "%"}, {"measurement": "SARS-CoV-2 CPE efficacy", "setting": "[5]", "value": 92.5, "unit": "%"}, {"measurement": "Vero E6 cytotoxicity cytotox (SARS-CoV-2 CPE counter screen)", "setting": "Vero E6 cells [6]; African green monkey", "value": 99.0, "unit": "%"}, {"measurement": "block of SARS-CoV-2 induced CPE in Vero E6 cells (in words)", "setting": "[10]", "value": "able to block SARS-CoV-2 induced CPE in Vero E6 cells, only when added during the viral entry time period, and not the postentry period"}, {"measurement": "CC50", "setting": "in vitro", "value": 38.3, "unit": "µM"}]}, {"molecule": "CN(C)CCCN1c2ccccc2CCc2ccc(Cl)cc21", "note": "[clomipramine]", "values": [{"measurement": "activity against SARS-S PP entry in the primary screen (in words)", "setting": "SARS-S PP [7]", "value": "active against SARS-S PP entry"}, {"measurement": "cytotoxicity in the primary screen (in words)", "setting": "Vero E6 cells [9]", "value": "noncytotoxic"}, {"measurement": "protection against SARS-CoV-2 CPE (in words)", "setting": "[10]", "value": "protect against SARS-CoV-2 CPE"}]}, {"molecule": "CC1=C[C@]23C(=O)[C@@H](C=C(CO)[C@@H](O)[C@]2(O)[C@H]1O)[C@H]1[C@@H](C[C@H]3C)C1(C)C", "note": "[ingenol]", "values": [{"measurement": "SARS-S PP in Vero E6 efficacy", "setting": "SARS-S PP [7]", "value": 93.3, "unit": "%"}, {"measurement": "selectivity ratio (EC50 of VSV-G PP entry divided by SARS-S PP entry EC50)", "setting": "SARS-S PP [7]", "value": 12.0}, {"measurement": "VSV-G PP in Vero E6 efficacy", "setting": "VSV-G PP [8]", "value": 76.4, "unit": "%"}, {"measurement": "activity in MERS-S PP entry in Huh7 cells (in words)", "setting": "MERS-S PP [1]", "value": "not in MERS-S entry in Huh7 cells"}, {"measurement": "Vero E6 cytotoxicity cytotox", "setting": "Vero E6 cells [9]; African green monkey", "value": "–4.0%"}, {"measurement": "safety ratio (CC50 of Vero E6 CPE counter screen divided by EC50 of SARS-CoV-2 CPE assay)", "setting": "[5]; African green monkey", "value": 355.7}, {"measurement": "Vero E6 cytotoxicity cytotox (SARS-CoV-2 CPE counter screen)", "setting": "Vero E6 cells [6]; African green monkey", "value": 0.0, "unit": "%"}]}]}
